Measured values published in paper PMC12157728, “Green and Efficient Synthetic Protocol for 1,3,5-Triazine Derivatives with Anticancer Potential Against Colorectal Cancer” (Molecules, 2025).
Where two headings read alike, the source gives them in different places.

Legend:
SW480 = assay: MTS cytotoxicity assay, SW480 colorectal cancer cells; type: cell-based, human; settings: for IC50: MTS, 24 h incubation, n = 3, >100 = no detectable effect at highest concentration, * = IC50 could not be determined (high variability or no consistent dose-response), read-out: Cytotoxicity IC50 ± SD, SW480
Method: (§1) The human colorectal cancer cell lines SW620, SW480 were obtained from the American Type Culture Collection (ATCC). Both cell lines were cultured in Dulbecco’s Modified Eagle Medium (DMEM) (Capricorn Scientific GmbH, Manassas, USA), which was supplemented with 10% fetal bovine serum (FBS) and 50 µg/mL of gentamicin. Cells were incubated at 37 °C in a humidified atmosphere containing 5% CO₂. The cultures were passaged approximately every three days upon reaching confluence using a 0.25% trypsin-EDTA solution, at a ratio of approximately 1:3 to 1:4. For the MTS assay, cells were seeded at a density of 10,000 cells per well in 96-well plates. After 24 h, compounds were added at five concentrations ([…]), and cells were incubated for an additional 24 h. Cytotoxicity was assessed using the CellTiter 96® AQueous One Solution Cell Proliferation Assay (Promega), following the manufacturer’s instructions. Absorbance was measured at 490 nm using a microplate reader.
(§2) The IC₅₀ values were determined relative to the untreated control cells (without test compounds). All experiments were performed in triplicate (n = 3). Compounds for which IC₅₀ values could not be reliably determined were excluded from quantitative analysis. […] Such compounds are reported as ‘>100µM’ or ‘>100µM*’, respectively, in the results.

SW620 = assay: MTS cytotoxicity assay, SW620 colorectal cancer cells; type: cell-based, human; settings: for IC50: Homo sapiens, SW-620, MTS, 24 h incubation, n = 3, >100 = no detectable effect at highest concentration, * = IC50 could not be determined (high variability or no consistent dose-response), read-out: Cytotoxicity IC50 ± SD, SW620
Method: as §1, §2

[1] = Lipophilicity by gradient RP-HPLC (C18, pH 7.4): CHI, chrom logD, PFI; type: physicochemical; set-up: key to PFI (Property Forecast Index): PFI = Chrom logD7.4 + number of aromatic rings; settings: for chromatographic logD: C18 Hypersil GOLD reversed-phase HPLC column, pH 7.4, C18 column; for chromatographic logD / chrom logD (RP-HPLC): pH 7.4, Chrom logD = 0.0525 × CHI − 1.467; for chrom logD (RP-HPLC): C18 column; for CHI C18: C18 at pH 7.4; for PFI (Property Forecast Index): PFI = Chrom logD7.4 + #Ar, threshold 7
From the text: (§3) All chromatographic experiments adhered to the protocols established by Valko and colleagues, which were implemented in our laboratory. Essentially, biochromatography facilitated the assessment of lipophilicity and phospholipid affinity, represented as Chromatographic Hydrophobicity Index (CHI) values, through a gradient elution experiment, comparing results with model substances. The Prominence-1 LC-2030C 3D HPLC system, operated via LabSolution software (v6.81, Kyoto, Japan), was utilized for all chromatographic analyses. Throughout the research, distinct chromatographic columns were employed: IAM.PC.DD2 (10 × 4.6 mm × 10.0 µm with a guard column; Regis Technologies; USA) and C18 Hypersil GOLD^TM (100 mm × 4.6 mm; 5.0 µm with a guard column; Thermo Scientific, Waltham, MA, USA). Each column was paired with guard columns featuring the same stationary phases as the main column. Mobile phase A consisted of a water solution of 50 mM ammonium acetate (VWR International, Leuven, Belgium), adjusted to physiological pH 7.4 using concentrated ammonia solution (Avantor Performance Materials Poland S.A., Gliwice, Poland). The mobile phase was prepared with ultrapure water from a Milli-Q water purification system (Merck Millipore, Darmstadt, Germany), achieving a resistivity of 18.2 MΩ. For phospholipid binding assessments, mobile phase B was HPLC grade acetonitrile (Chempur, Piekary Śląskie, Poland), with a linear gradient from 0 to 85% B over 5.25 min, then maintained at 85% ACN for 0.5 min. The mobile phase was delivered at a flow rate of 1.5 mL/min, with the IAM.PC.DD2 column temperature held steady at 30 °C. For lipophilicity evaluations, the solvents and flow rate mirrored those used in IAM chromatography. The C18 Hypersil GOLD^TM column was kept at 40 °C. Similarly, a linear gradient was applied from 0 to 5.25 min, but, in this instance, it ranged from 2 to 98% ACN, with the maximum phase B concentration sustained for 2.5 min. Dimethyl sulfoxide (Avantor Performance Materials Poland S.A., Poland) was employed to dissolve the target solutes, forming a solution with a concentration of 200 µg/mL. Detection occurred in the UV region at a wavelength of 190–300 nm. The injection volume was 5 μL, and each compound was analyzed in duplicate, with retention time variation below 0.5%. Retention times for the studied molecules and reference standards are detailed in the Supplementary Material, Tables S1 and S2.
Experimentally determined CHI values were converted to chrom logD using the following equation [53]:Chrom logD = 0.0525 × CHI − 1.467(1)
In addition, the Property Forecast Index (PFI), the sum of the number of aromatic rings(#Ar), and a lipophilicity measure are used to reflect the principle of simultaneous minimization of lipophilicity and aromaticity, which supports the selection of oral clinical candidates in GKS [47].PFI = Chrom logD7.4 + #Ar(2)

[2] = Phospholipid affinity by IAM-HPLC (IAM.PC.DD2 column); type: physicochemical; settings: pH 7.4, phospholipidosis threshold >50
From the text: as §3

Compound | chromatographic logD [1] | chrom logD (RP-HPLC) [1] | CHI C18 [1] | PFI (Property Forecast Index) [1] | IC50 (SW480; Homo sapiens) | IC50 (SW620) | Cytotoxic activity in words, SW480 (SW480) | Cytotoxic activity in words, SW620 (SW620) | CHI IAM (IAM-HPLC) [2] | IC50 (SW480)
O=c1[nH]cc(F)c(=O)[nH]1 [5-fluorouracil, reference compound] |  |  |  |  | 15.5 ± 7.83 µM | 21.7 ± 2.75 µM |  |  |  | 
Cl.Clc1ccccc1Nc1nc(NCCc2ccccc2)nc(N2CCOCC2)n1 [Compound 3, N^2-(2-chlorophenyl)-6-morpholino-N^4-phenethyl-1,3,5-triazine-2,4-diamine hydrochloride] | 3.95 | 3.947 |  |  | > 100 µM | > 100 µM | limited cytotoxic potential | limited cytotoxic potential | 55.97 | 
Cl.Clc1ccccc1Nc1nc(Nc2ccccc2)nc(N2CCOCC2)n1 [Compound 4, N^2-(2-chlorophenyl)-6-morpholino-N^4-phenyl-1,3,5-triazine-2,4-diamine hydrochloride] | 4.1 | 4.098 | 106 | 7.10 | > 100 µM | 36.1 ± 46.5 µM |  |  | 46.34 | 
Cl.Clc1ccccc1Nc1nc(NCc2ccccc2)nc(N2CCOCC2)n1 [Compound 5, N^2-benzyl-N^4-(2-chlorophenyl)-6-morpholino-1,3,5-triazine-2,4-diamine hydrochloride] | 3.95 | 3.947 | 103.1 | 6.95 | 43.1 µM | 32.8 ± 23.4 µM |  |  | 46.45 | 43.4 ± 12.2 µM
Cl.Clc1ccccc1Nc1nc(NCCCc2ccccc2)nc(N2CCOCC2)n1 [Compound 6, N^2-(2-chlorophenyl)-6-morpholino-N^4-(3-phenylpropyl)-1,3,5-triazine-2,4-diamine hydrochloride] | 4.71 | 4.706 | 117.6 | 7.71 | > 100 µM | > 100 µM | limited cytotoxic potential | limited cytotoxic potential | 51.63 | 
Cl.Clc1ccccc1Nc1nc(NCCOc2ccccc2)nc(N2CCOCC2)n1 [Compound 11, N^2-(2-chlorophenyl)-6-morpholino-N^4-(2-phenoxyethyl)-1,3,5-triazine-2,4-diamine hydrochloride] | 4.01 | 4.012 | 104.4 | 7.01 |  | 5.85 ± 14.3 µM |  |  | 45.92 | 

Now from value to compound, other results behind:

chromatographic logD [1] | chrom logD (RP-HPLC) [1] | CHI C18 [1] | PFI (Property Forecast Index) [1] | Compound | IC50 (SW480; Homo sapiens) | IC50 (SW620) | Cytotoxic activity in words, SW480 (SW480) | Cytotoxic activity in words, SW620 (SW620) | CHI IAM (IAM-HPLC) [2] | IC50 (SW480)
4.44 | 4.443 | 112.6 | 7.44 | Cl.Fc1ccc(N2CCN(CCNc3nc(Nc4ccccc4Cl)nc(N4CCOCC4)n3)CC2)cc1 [Compound 7, N^2-(2-chlorophenyl)-N^4-(2-(4-(4-fluorophenyl)piperazin-1-yl)ethyl)-6-morpholino-1,3,5-triazine-2,4-diamine hydrochloride] | > 100 µM |  | limited cytotoxic potential | limited cytotoxic potential | 49.59 | 
4.15 | 4.148 | 107 | 7.15 | Cl.Clc1ccccc1Nc1nc(N2CCOCC2)nc(N2CCN(c3ccccc3)CC2)n1 [Compound 8, N-(2-chlorophenyl)-4-morpholino-6-(4-phenylpiperazin-1-yl)-1,3,5-triazin-2-amine hydrochloride] | 20.6 ± 24.9 µM |  |  |  | 47.79 | 
4.23 | 4.226 | 108.4 | 7.23 | Cl.Clc1ccccc1Nc1nc(N2CCOCC2)nc(N2CCN(c3nsc4ccccc34)CC2)n1 [Compound 9, 4-(4-(benzo[d]isothiazol-3-yl)piperazin-1-yl)-N-(2-chlorophenyl)-6-morpholino-1,3,5-triazin-2-amine hydrochloride] | > 100 µM | 22.1 ± 17.3 µM | inactive | some activity | 48.02 | 
3.94 | 3.936 | 102.9 | 6.94 | Cl.Clc1ccccc1Nc1nc(NCCNc2ccccc2)nc(N2CCOCC2)n1 [Compound 10, N^2-(2-chlorophenyl)-6-morpholino-N^4-(2-(phenylamino)ethyl)-1,3,5-triazine-2,4-diamine hydrochloride] | > 100 µM |  | limited cytotoxic potential | limited cytotoxic potential | 44.55 | 
